The series in a line: Stability of cryodesiccated composition. Conditions: room temperature. It counts as physicochemical. The text has this:
Once formulated, the micelles of the invention may be freeze-dried or lyophilized for long-term storage if desired. […] If the composition is freeze-dried, it may be packed in vials for subsequent reconstitution with a suitable aqueous solution, such as sterile water or sterile water containing a saccharide and/or other suitable excipients, just prior to use. For example, reconstitution may be by simply adding water for injection just prior to administration.

For the substance “benzoporphyrin derivative monoacid ring A [verteporfin]”, the “period over which potency was maintained” value is “at least nine months”.

The record behind these values is patent US20040013717A1, “PEG-lipid containing formulations” (priority 2001, published 2004).
